Legend:
[1] = target: T1, PPARα (Homo sapiens, UniProt Q07869); assay: Luciferase transcriptional reporter gene assay, BHK21 cells transfected with pFA-PPARα-LBD; assay type: cell-based; parameters: PPARα (aa 167 to 469); details: 24 hours incubation
T1 sequence (Q07869 167-468 limits assumed): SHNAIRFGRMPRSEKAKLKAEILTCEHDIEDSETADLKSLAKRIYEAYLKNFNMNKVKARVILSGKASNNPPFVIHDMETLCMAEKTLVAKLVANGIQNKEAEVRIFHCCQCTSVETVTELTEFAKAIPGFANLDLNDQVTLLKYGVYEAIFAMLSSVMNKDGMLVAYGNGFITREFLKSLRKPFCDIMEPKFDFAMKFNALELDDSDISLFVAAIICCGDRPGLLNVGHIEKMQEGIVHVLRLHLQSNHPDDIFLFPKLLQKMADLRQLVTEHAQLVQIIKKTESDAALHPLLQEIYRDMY
Procedure: (§1) Full-length cDNA clones for human PPARα and mouse PPARγ were obtained by RT-PCR from human adipose and mouse liver cRNA, respectively, cloned into plasmid vectors and verified by DNA sequencing. […] To accomplish this, the portions of the cloned sequences encoding the LBDs were amplified from the full-length clones by PCR and then subcloned into the plasmid vectors. Final clones were verified by DNA sequence analysis.
(§2) Baby hamster kidney cells (BHK21 ATCC CCL10) were grown in DMEM medium containing 10% FBS at 37° C. in a 95%02:5%CO2 atmosphere. Cells were seeded in 6 well plates at a density of 10^5 Cells/well and then batch-transfected with either the pPA-PPARγ-LBD or pFA-PPARα-LBD expression plasmids plus a reporter plasmid and an expression plasmid encoding the secretable form of alkaline phosphatase (SEAP) as a normalization control. […] Six hours following transfection, the cells were harvested by trypsinization and seeded in 96 well plates at a density of 10^4 cells/well. After 24 hours to allow attachment of cells, the medium was removed and replaced with 100 ul of phenol red-free medium containing the test substances or control ligands (final DMSO concentration: 0.1%). Following incubation of the cells for 24 hours with substances, 50 ul of the supernatant was recovered and analyzed for SEAP activity (Roche Molecular Biochemicals). The remainder of the supernatant was discarded, 50 ul PBS was added per well followed by one volume of Luciferase Constant-Light Reagent (Roche Molecular Biochemicals) to lyse the cells and initiate the luciferase reaction. Luminescence for both SEAP and luciferase was measured in a Packard TopCount. Luciferase activity was normalized to the SEAP control and transcriptional activation in the presence of a test substance was expressed as fold-activation over cells incubated in the absence of the substance. EC50 values were calculated using the XLfit program (ID Business Solutions Ltd. UK).

[2] = target: T2, PPARγ (Mus musculus, UniProt P37238); assay: Luciferase transcriptional reporter gene assay, BHK21 cells transfected with PPARγ-LBD expression plasmid; assay type: cell-based; parameters: PPARγ (aa 174 to 476) and PPARα (aa 167 to 469); expressed in transfected cells; host or cells: BHK21 (ATCC CCL10); details: 24 hours incubation
T2 sequence (P37238 204-505): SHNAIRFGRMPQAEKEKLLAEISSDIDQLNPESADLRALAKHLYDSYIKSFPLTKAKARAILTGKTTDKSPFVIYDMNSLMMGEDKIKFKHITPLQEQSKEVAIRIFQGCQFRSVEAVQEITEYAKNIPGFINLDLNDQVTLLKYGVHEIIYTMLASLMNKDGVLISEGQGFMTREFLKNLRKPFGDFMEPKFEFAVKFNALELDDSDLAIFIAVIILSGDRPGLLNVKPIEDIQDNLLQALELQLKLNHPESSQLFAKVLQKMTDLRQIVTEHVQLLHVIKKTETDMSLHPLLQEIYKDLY
Source text: (§3) Full-length cDNA clones for human PPARα and mouse PPARγ were obtained by RT-PCR from human adipose and mouse liver cRNA, respectively, cloned into plasmid vectors and verified by DNA sequencing. (With respect to cloning of PPARα cDNA, see Sher, T. et al. “cDNA doning, chromosomel mapping and functional characterization of the human peroxisome proliferator activated receptor”, Biochemistry 32(21) 5598-5604 (1993); with respect to cloning of PPARγ2 cDNA, see Tontonoy P., et al. “mPPAR gamma 2: tissue-specific regulator of an adipocyte enhancer”, Genes Dev. 8(10) 1224-34 (1994).) Bacterial and mammalian expression vectors were constructed to produce glutathione-s-transferase (GST) and Gal4 DNA binding domain proteins fused to the ligand binding domains (LBD) of PPARγ (aa 174 to 476) and PPARα (aa 167 to 469). To accomplish this, the portions of the cloned sequences encoding the LBDs were amplified from the full-length clones by PCR and then subcloned into the plasmid vectors. Final clones were verified by DNA sequence analysis.
as §2

[3] = target: T2, PPARγ; assay: PPARγ radioligand binding assay (SPA, GST-PPARγ-LBD fusion protein); parameters: PPARγ (aa 174 to 476); details: SPA beads
Source text: as §3
(§4) Induction, expression, and purification of GST-LBD fusion proteins were performed in E. coli strain BL21(pLysS) cells by standard methods (Ref: Current Protocols in Molecular Biology, Wiley Press, edited by Ausubel et al.).
(§5) PPARγ receptor binding was assayed in TKE50 (50 mM Tris-HCl, pH 8, 50 mM KCl, 2 mM EDTA, 0.1 mg/ml fatty acid-free BSA and 10 mM DTT). For each 96 well reaction an 140 ng equivalent of GST-PPARγ-LBD fusion protein was bound to 10 ug SPA beads (PharmaciaArnersham) in a final volume of 50 ul by shaking. The resulting slurry was incubated for 1 h at RT and centrifuged for 2 min at 1300 g. The supernatant containing unbound protein was removed and the semidry pellet containing the recptor-coated beads was resolved in 50 ul of TKE. For radioligand binding e.g. 10000 dpm 2(S)-(2-benzoyl-phenylamino)-3-{4-[1,1-ditritio-2-(5-methyl-2-phenyl-oxazol-4-yl)-ethoxy]-phenyl}-propionic acid in 50 ul were added, the reaction incubated at RT for 1 h and scintillation proximity counting performed. All binding assays were performed in 96 well plates and the amount of bound ligand measured on a Packard TopCount using OptiPlates (Packard). Nonspecific binding was determined in the presence of 10^−4 M unlabelled compound. Dose response curves were done in triplicates within a range of concentration from 10^−10 M to 10^−4 M.

[4] = target: T1, PPARα; assay: PPARα radioligand binding assay (SPA, GST-PPARα-LBD fusion protein); parameters: PPARγ (aa 174 to 476) and PPARα (aa 167 to 469); made in house; host or cells: E. coli BL21(pLysS); details: SPA beads
Source text: as §1, §4
as §5, with “PPARα receptor” for “PPARγ receptor”, “reaction a” for “reaction an”, “of GST-PPARα-LBD” for “of GST-PPARγ-LBD”, “beads (PharmaciaAmersham)” for “beads (PharmaciaArnersham)”, “dpm of” for “dpm”, “2(S)-(2-benzoyl-phenylamino)-3-{4-[1,1-ditritio-2-(5-methyl-2-phenyl-oxazol-4-yl)-ethoxy]-phenyl}-propionic acid or 2,3-ditritio-2(S)-methoxy-3-(4-(2-(5-methyl-2-phenyl-oxazol-4-yl)-ethoxy]-benzo[b]thiophen-7-yl}-propionic” for “2(S)-(2-benzoyl-phenylamino)-3-{4-[1,1-ditritio-2-(5-methyl-2-phenyl-oxazol-4-yl)-ethoxy]-phenyl}-propionic”

[5] = target: T2, PPARγ; assay: PPARγ radioligand binding assay (SPA, GST-PPARγ-LBD fusion protein); details: SPA beads
Source text: Full-length cDNA clones for human PPARα and mouse PPARγ were obtained by RT-PCR from human adipose and mouse liver cRNA, respectively, cloned into plasmid vectors and verified by DNA sequencing. (With respect to cloning of PPARα cDNA, see Sher, T. et al. “cDNA doning, chromosomel mapping and functional characterization of the human peroxisome proliferator activated receptor”, Biochemistry 32(21) 5598-5604 (1993); with respect to cloning of PPARγ2 cDNA, see Tontonoy P., et al. “mPPAR gamma 2: tissue-specific regulator of an adipocyte enhancer”, Genes Dev. 8(10) 1224-34 (1994).) Bacterial and mammalian expression vectors were constructed to produce glutathione-s-transferase (GST) and Gal4 DNA binding domain proteins fused to the ligand binding domains (LBD) of PPARγ (aa 174 to 476) and PPARα (aa 167 to 469). To accomplish this, the portions of the cloned sequences encoding the LBDs were amplified from the full-length clones by PCR and then subcloned into the plasmid vectors. Final clones were verified by DNA sequence analysis. […]
PPARγ receptor binding was assayed in TKE50 (50 mM Tris-HCl, pH 8, 50 mM KCl, 2 mM EDTA, 0.1 mg/ml fatty acid-free BSA and 10 mM DTT). […] All binding assays were performed in 96 well plates and the amount of bound ligand measured on a Packard TopCount using OptiPlates (Packard). Nonspecific binding was determined in the presence of 10^−4 M unlabelled compound. […]

[6] = target: T1, PPARα; assay: Luciferase transcriptional reporter gene assay, BHK21 cells transfected with pFA-PPARα-LBD; assay type: cell-based; details: 24 hours incubation
Procedure: as §1
Baby hamster kidney cells (BHK21 ATCC CCL10) were grown in DMEM medium containing 10% FBS at 37° C. in a 95%02:5%CO2 atmosphere. Cells were seeded in 6 well plates at a density of 10^5 Cells/well and then batch-transfected with either the pPA-PPARγ-LBD or pFA-PPARα-LBD expression plasmids plus a reporter plasmid and an expression plasmid encoding the secretable form of alkaline phosphatase (SEAP) as a normalization control. […] Following incubation of the cells for 24 hours with substances, 50 ul of the supernatant was recovered and analyzed for SEAP activity (Roche Molecular Biochemicals). […] Luminescence for both SEAP and luciferase was measured in a Packard TopCount. Luciferase activity was normalized to the SEAP control and transcriptional activation in the presence of a test substance was expressed as fold-activation over cells incubated in the absence of the substance. EC50 values were calculated using the XLfit program (ID Business Solutions Ltd. UK).

Structure (SMILES) | EC50 [1] [nM] | EC50 [2] [nM] | IC50 [3] [nM] | IC50 [4] [nM] | IC50 [5] [nM] | EC50 [6] [nM]
CCOC(Cc1ccc(OCc2csc(-c3ccc(Cl)cc3)n2)cc1C)C(=O)O (racemic) [Example 14, [rac]-3-{4-[2-(4-chloro-phenyl)-thiazol-4-ylmethoxy]-2-methyl-phenyl}-2-ethoxy-propionic acid] | 77 | 608 | 457 | 109 | – | –
CCOC(Cc1ccc(OCCc2csc(-c3ccc(C(F)(F)F)cc3)n2)c(F)c1)C(=O)O (racemic) [Example 25, [rac]-2-Ethoxy-3-(3-fluoro-4-{2-[2-(4-trifluoromethyl-phenyl)-thiazol-4-yl]-ethoxy}-phenyl)-propionic acid] | 116 | 508 | 535 | 370 | – | –
CCOC(Cc1ccc(OCc2csc(-c3ccc(Cl)cc3)n2)c2ccoc12)C(=O)O (racemic) [Example 95] | – | 1580 | – | 114 | 925 | 54
CCO[C@@H](Cc1ccc(OCc2csc(-c3cccc(Cl)c3)n2)cc1C)C(=O)O [Example 19, (2S)-3-{4-[2-(3-Chloro-phenyl)-thiazol-4-ylmethoxy]-2-methyl-phenyl}-2-ethoxy-propionic acid] | 71 | 60 | 179 | 89 | – | –
CCO[C@@H](Cc1ccc(OCc2csc(-c3ccc(Cl)cc3)n2)cc1C)C(=O)O [Example 20, (2S)-3-{4-[2-(4-Chloro-phenyl)-thiazol-4-ylmethoxy]-2-methyl-phenyl}-2-ethoxy-propionic acid] | 27 | 209 | 738 | 24 | – | –

The remaining lines, values ahead:

EC50 [1] [nM] | EC50 [2] [nM] | IC50 [3] [nM] | IC50 [4] [nM] | IC50 [5] [nM] | EC50 [6] [nM] | Structure (SMILES)
400 | 389 | 96 | 133 | – | – | CCOC(Cc1ccc(OCc2csc(-c3ccc(C(C)C)cc3)n2)c(C)c1)C(=O)O (racemic) [Example 5, [rac]-2-Ethoxy-3-{4-[2-(4-isopropyl-phenyl)-thiazol-4-ylmethoxy]-3-methyl-phenyl}-propionic acid]
2110 | 543 | 52 | 50 | – | – | CCOC(Cc1ccc(OCCCc2csc(-c3ccc(C(C)C)cc3)n2)c(F)c1)C(=O)O (racemic) [Example 43, [rac]-2-Ethoxy-3-(3-fluoro-4-{3-[2-(4-isopropyl-phenyl)-thiazol-4-yl]-propoxy}-phenyl)-propionic acid]
748 | 411 | 42 | 37 | – | – | CCOC(Cc1ccc(OCCc2nc(-c3ccc(OC(F)(F)F)cc3)sc2C)c(C)c1)C(=O)O (racemic) [Example 60, [rac]-2-ethoxy-3-(3-methyl-4-{2-[5-methyl-2-(4-trifluoromethoxy-phenyl)-thiazol-4-yl]-ethoxy}-phenyl)-propionic acid]
– | 281 | – | 95 | 84 | 513 | CCOC(Cc1ccc(OCCc2nc(-c3cc(OC)cc(OC)c3)sc2C)c(OC)c1)C(=O)O (racemic) [Example 64]
215 | 42 | 20 | 15 | – | – | CCOC(Cc1ccc(OCCCc2nc(-c3ccc(C(C)(C)C)cc3)sc2C)cc1C)C(=O)O (racemic) [Example 102, [rac]-3-(4-{3-[2-(4-tert-Butyl-phenyl)-5-methyl-thiazol-4-yl]-propoxy}-2-methyl-phenyl)-2-ethoxy-propionic acid]

From patent US6809110B2 (Hoffmann-La Roche Inc., priority 2002, dated 2004)
